Entries after “also recorded” stand apart in the source; their conditions may differ.
Key:
[1] = tested on: control petunia plants (wildtype or control vector pMON505); assay: Plant response to glyphosate spraying; type: in vivo; details: 0.8 #/acre acid equivalent, isopropylamine salt, sprayed
Protocol: (§1) Four individual representative transgenic seedlings were selected, grown and tested in the testing procedure described below, along with four individual non-transformed (wild-type) petunia seedlings.
(§2) The plants were grown in a growth medium in a growth chamber at 26° C. with 12 hours of light per day. The plants were fertilized weekly with a soluble fertilizer and watered as needed. The plants were sprayed at a uniform and reproducible delivery rate of herbicide by use of an automated track sprayer. The glyphosate solution used was measured as pounds of glyphosate acid equivalents per acre, mixed as the glyphosate isopropylamine salt, with an ionic surfactant.
(§3) Four individual wild-type (non-transformed) petunia plants were selected for use as control plants. Four individual transformed plants containing the pMON546 vector were selected by kanamycin resistance as described by Horsch, et al. (1985).
(§4) The control plants and the transformed plants were sprayed with the isopropylamine salt of glyphosate at the application level listed in Table 2 below; the experimental results obtained are also summarized in Table 2.

[2] = tested on: transformed petunia plants containing pMON546 (Chimeric EPSP); assay: Plant response to glyphosate spraying; type: in vivo; details: 0.8 #/acre acid equivalent, isopropylamine salt, sprayed
Protocol: as §1, §2, §3, §4

[3] = tested on: tobacco plants transformed with glyphosate-tolerant petunia EPSP synthase gene (pMON567); assay: Relative effect of glyphosate spraying on transformed tobacco; type: in vivo, Nicotiana tobacam CV H425; design: key: 0 = total kill, 10 = normal unsprayed plant; details: GT, 0 total kill, 10 no effect, best transformant
Protocol: Plasmid pMON530 DNA was digested with BglII and ClaI, to which was added the 330 bp BglII-EcoRI EPSP synthase 5' fragment from pMON536 and purified 1.4 kb EcoRI-ClaI EPSP synthase 3' fragment from pMON9566 and then treated with T4 DNA ligase. Following transformation a plasmid was isolated that carried the intact glycine (101) to alanine variant EPSP synthase coding sequence of petunia (with the coding sequence for the chloroplast transmit peptide) adjacent to the CaMV35S promoter. This plasmid was designated pMON567. Plasmid pMON567 was inserted into A. tumefaciens cells that contained helper plasmid pGV3111-SE.
A culture of A. tumefaciens cells containing pMON567/pGV3111-SE was contacted with leaf disks taken from tobacco plants (Nicotiana tobacam CV H425) as described by Horsch (1985). The Agrobacterium cells inserted the variant EPSP synthase gene into the chromosomes of the plant cells. Plant cells resistant to kanamycin were selected and regenerated into differentiated plants by the procedure of Horsch (1985).
Progeny of these plants were propagated and grown to a rosette diameter of about 10 cm corresponding to a plant age of about four weeks. The plants were sprayed with glyphosate at levels corresponding to 0.4, 2.0 and 3.6 pounds acid equiv./acre. The effect of glyphosate on the transformed plants were scored at 7, 14 and 28 days. The effect was translated to a numerical scale of 0-10 in which 0 represents total kill and 10 is the normal, unsprayed plant. […] The values represent the best transformant for both wild-type EPSP synthase and glyphosate-tolerant EPSP synthase genes.

[4] = tested on: bacteria harboring pMON342 or pMON9566 (double pL promoter, petunia EPSP synthase); assay: Glyphosate tolerance of bacteria in growth media; type: cell-based, E. coli; details: very high expression of the enzyme
Protocol: The double pL promoter used to express the petunia EPSP synthase in pMON342 and pMON9566 leads to a very high level of expression of the enzyme. The enzyme is present at such high concentration that bacteria harboring either of these plasmids are tolerant to very high levels of glyphosate ([…]) in growth media, even though the enzyme produced by pMON342 is the wild type form. […] A plasmid for identifying such a promoter was constructed as follows: pMON9544, the precursor to pMON342, was digested with BamHI to remove the pL promoters, and was recircularized by ligation resulting in pMON362. The EcoRI fragment of pMON9556 containing the 3'-cDNA portion of the petunia EPSPS cDNA was then inserted into the EcoRI site of this plasmid reconstituting the entire coding sequence. The resulting plasmid, pMON364 is identical to pMON342 except that there is no promoter 5' of the EPSP synthase coding sequence.

[5] = molecular target: wild type maize pre-EPSP synthase (pMON9951 product) (Zea mays, UniProt A0A1D6NVZ6); assay: EPSP synthase activity of in vitro translation product; type: biochemical; details: 1.0 mM glyphosate
Protocol: (§5) To an assay mix (40 μl) containing shikimate-3-phosphate (2 mM), ^14 C-phosphoenolpyruvate (1 mM, 1.2 mCi/mmol), ammonium molybdate (0.1 mM), potassium fluoride (5 mM) in 50 mM HEPES-KOH, pH 7, was added the extract and incubated at 25° C. for 2 mins. The reaction was quenched by the addition of 50 μl of 50 μl of 90% ethanol/0.1M acetic acid, pH 4.5. 70 μl of the reaction mixture was loaded on a SynchroPak AX100 HPLC column (0.4×25 cm) and the column was eluted with 0.5M potassium phosphate, pH 5.5 at 1 ml/min. The radioactivity of the eluent was monitored using a Radiomatic Flo-One Beta Instrument. (Radiomatics, Fla.). The EPSP synthase activity was determined by measurement of the conversion of ^14 C-PEP to ^14 C-EPSP synthase, both of which are resolved under the above conditions of chromatography. The protein content of the extract was determined by the method of Bradford (Biorad Labs, Calif.). The specific activity of the extract is expressed as nanomoles of EPSP synthase formed/min/mg protein.
(§6) The linearized plasmid DNA was transcribed in vitro with T7 polymerase essentially as described by Krieg et al. (1984). The standard reaction buffer contained 40 mM Tris-HCl (pH 7.9), 6 mM MgCl2, 10 mM dithiothreitol, 2 mM spermidine, 80 U RNAsin ribuonuclease inhibitor, 0.5 mM each of ATP, GTP, CTP and UTP, in a final reaction volume of 100 μl. The final RNA pellet was resuspended in 20 μl of sterile water and stored at -80° C. A standard translation reaction contained 100 μl of nuclease-treated rabbit reticulocyte lysate, 5.7 μl of a 19-amino acid mixture (minus methionine) at 1 mM each, 5.7 μl of RNA (total RNA transcripts derived from 0.63 μg of plasmid DNA), 16 μl RNAsin (20U/μl) ribonuclease inhibitor, and 58.3 μl of [^35 S] methionine (14-15 mCi/ml). The in vitro translation products were stored frozen at -80° C.
(§7) The products of the in vitro translation were then assayed for EPSP synthase activity as described herein.

[6] = molecular target: variant maize preenzyme product of pMON8617 (glycine to alanine and glycine to aspartate) (Zea mays, UniProt A0A1D6NVZ6, G163A/G206D); assay: as above; type: biochemical
Protocol: as §5, §6, §7

variant maize preenzyme product of pMON8617 (glycine to alanine and glycine to aspartate), sequence (A0A1D6NVZ6 entry or part of it G163A/G206D): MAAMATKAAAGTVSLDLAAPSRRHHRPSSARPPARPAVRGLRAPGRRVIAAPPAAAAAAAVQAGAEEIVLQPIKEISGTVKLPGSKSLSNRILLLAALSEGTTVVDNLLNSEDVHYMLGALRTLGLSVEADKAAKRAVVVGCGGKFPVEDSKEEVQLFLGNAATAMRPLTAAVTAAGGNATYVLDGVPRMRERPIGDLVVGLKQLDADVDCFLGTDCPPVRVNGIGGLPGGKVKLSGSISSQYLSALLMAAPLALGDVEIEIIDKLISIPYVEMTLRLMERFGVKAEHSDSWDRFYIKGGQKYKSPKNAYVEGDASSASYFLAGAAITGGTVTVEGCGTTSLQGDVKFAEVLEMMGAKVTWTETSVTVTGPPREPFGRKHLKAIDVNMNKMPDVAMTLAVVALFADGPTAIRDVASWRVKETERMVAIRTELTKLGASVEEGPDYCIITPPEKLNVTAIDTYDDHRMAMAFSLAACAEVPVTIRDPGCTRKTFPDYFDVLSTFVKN
wild type maize pre-EPSP synthase (pMON9951 product), sequence (A0A1D6NVZ6 1-506): as the sequence (A0A1D6NVZ6 entry or part of it G163A/G206D) above, with A163G, D206G counted along it

O=C(O)CNCP(=O)(O)O [glyphosate, N-phosphonomethylglycine]
Visual Appearance [1]: completely dead; also recorded: killed | Visual Appearance [2]: growing well; also recorded: healthy and viable | Relative Effect of Glyphosate ([3]; 0.4 pounds/Acre, day 7): 8.0 | Relative Effect of Glyphosate ([3]; 0.4 pounds/Acre, day 14): 8.0 | Relative Effect of Glyphosate ([3]; 0.4 pounds/Acre, day 28): 9.0 | Relative Effect of Glyphosate ([3]; 2.0 pounds/Acre, day 7): 8.0 | Relative Effect of Glyphosate ([3]; 2.0 pounds/Acre, day 14): 8.3 | Relative Effect of Glyphosate ([3]; 2.0 pounds/Acre, day 28): 7.0 | Relative Effect of Glyphosate ([3]; 3.6 pounds/Acre, day 7): 5.0 | Relative Effect of Glyphosate ([3]; 3.6 pounds/Acre, day 14): 7.4 | Relative Effect of Glyphosate ([3]; 3.6 pounds/Acre, day 28): 7.0 | level of glyphosate tolerated in growth media [4]: > 50 µM | EPSP synthase activity in the presence of glyphosate [5]: no activity was detected | inhibition of EPSP synthase activity ([6]; 1 mM glyphosate): only slight inhibition | inhibition of EPSP synthase activity ([6]; 100 mM glyphosate): greater inhibition, but still showing detectable activity

From US5310667A (priority 1989, dated 1994)
